How the values were obtained:
[1] = in vivo
Source text: One or more embodiments of the invention comprise systems and method for delivering relatively high concentrations of medicament without undue precipitation of the medicament in the delivery system. The on-vent adapter with the pattern of aerosol generation is designed to allow up to 90% of aerosol enter the artificial airway and allow 45-80% of dose to reach aerosol to the lungs. Hand Held adapter delivers inhaled mass of 75-90% with 40-55% of dose reaching the lungs as aerosol (based on AMIK phase II Scintigraphy.) Initially in vitro testing was showing precipitation of Vancomycin in powder form on the inspiratory filter.

[2] = system: Gram-positive, pneumonia-causing bacteria; assay: Reference MIC in tracheal aspirates (TA); assay type: cell-based, Staph species; conditions: locally in TA
Method: The dose-response to aerosolized vancomycin, administered in accordance with one or more embodiments of devices, apparatus and/or methods of the present invention was evaluated, as was the ability to deliver a predefined target multiple of an MIC for Gram-positive bacteria causing pneumonia, including, Staph species, in the tracheal aspirates (TA). […] Thus the desired multiple is 128 μg/mL.

[3] = system: vancomycin resistant S. aureas; conditions: estimated; printed with "or more"; cited from earlier work
[4] = system: vancomycin susceptable S. aureas; conditions: estimated; cited from earlier work
[5] = parenterally administered; cited from earlier work
[6] = system: vancomycin intermediate S. aureas; conditions: estimated; cited from earlier work
gram-positive bacteria = conditions: P<=0.05, cited from earlier work
S. aureus = conditions: lowered by CLSI; cited from earlier work
[7] = aerosolized versus systemic vancomycin, n=10, high suspicion for MRSA respiratory infection; cited from earlier work

Structure (SMILES)	dose reaching the lungs as aerosol [1]	inhaled mass [1]	reference MIC value [2] [µg/mL]	reference MIC [3] [µg/mL]	reference MIC [4] [µg/mL]	levels in lung epithelial lining fluid as share of those seen in serum [5] [%]	reference MIC [6] [µg/mL]	CDC-NNIS diagnostic criteria for ventilator-associated pneumonia (VAP) (gram-positive bacteria; aerosolized vancomycin (n=14) and/or gentamicin-sulfate, placebo 75.0% to 78.6%)	WBC at Day 14 (gram-positive bacteria; versus placebo)	bacterial resistance (gram-positive bacteria; versus placebo)	clinical pulmonary infection score CPIS (gram-positive bacteria; versus placebo)	use of systemic antibiotics (gram-positive bacteria; versus placebo)	ventilator weaning (gram-positive bacteria; versus placebo)	vancomycin breakpoint (S. aureus) [µg/mL]	sputum vancomycin concentrations [7]
NCC[C@H](O)C(=O)N[C@@H]1C[C@H](N)[C@@H](O[C@H]2O[C@H](CN)[C@@H](O)[C@H](O)[C@H]2O)[C@H](O)[C@H]1O[C@H]1O[C@H](CO)[C@@H](O)[C@H](N)[C@H]1O [AMIK]	40-55%	75-90%	–	–	–	–	–	–	–	–	–	–	–	–	–
CN[C@H](CC(C)C)C(=O)N[C@H]1C(=O)N[C@@H](CC(N)=O)C(=O)N[C@H]2C(=O)N[C@H]3C(=O)N[C@H](C(=O)N[C@H](C(=O)O)c4cc(O)cc(O)c4-c4cc3ccc4O)[C@H](O)c3ccc(c(Cl)c3)Oc3cc2cc(c3O[C@@H]2O[C@H](CO)[C@@H](O)[C@H](O)[C@H]2O[C@H]2C[C@](C)(N)[C@H](O)[C@H](C)O2)Oc2ccc(cc2Cl)[C@H]1O [vancomycin]	–	–	32	16 to 32	2 to 4	~14	8 to 16	35.7% to 73.6%	lower	reduced	reduced	reduced	increased	2	significantly increases
